Patent US9169254B2, “Spiroimidazolone derivative” (Chugai Seiyaku Kabushiki Kaisha, priority 2009, dated 2015)

Target: T1, human PTH1 receptor (Homo sapiens, UniProt Q03431)
T1 sequence (Q03431 27-593): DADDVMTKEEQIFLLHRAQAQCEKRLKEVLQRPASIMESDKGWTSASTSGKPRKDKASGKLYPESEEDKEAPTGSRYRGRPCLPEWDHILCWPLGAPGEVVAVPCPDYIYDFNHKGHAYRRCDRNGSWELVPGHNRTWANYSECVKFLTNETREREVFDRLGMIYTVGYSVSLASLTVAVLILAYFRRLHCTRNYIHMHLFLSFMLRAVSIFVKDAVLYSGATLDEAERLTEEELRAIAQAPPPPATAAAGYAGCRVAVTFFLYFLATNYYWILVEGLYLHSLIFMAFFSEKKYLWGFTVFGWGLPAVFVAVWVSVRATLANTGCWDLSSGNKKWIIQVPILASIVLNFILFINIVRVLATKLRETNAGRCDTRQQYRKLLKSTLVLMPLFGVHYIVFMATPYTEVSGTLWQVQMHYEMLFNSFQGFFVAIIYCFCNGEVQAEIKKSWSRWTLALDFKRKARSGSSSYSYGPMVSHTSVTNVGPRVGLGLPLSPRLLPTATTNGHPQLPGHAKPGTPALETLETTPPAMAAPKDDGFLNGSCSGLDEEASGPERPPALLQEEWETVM
Assay: In vitro cAMP signal activity in HKRK-B7 cells (LLC-PK1 cells overexpressing the human PTH1 receptor)
Assay type: cell-based
Details: HKRK-B7 cells; compound at 1×10^−3 M; cAMP produced as percentage of that produced by hPTH(1-34) at 100 nM

cAMP production activity (%)	Compound
84	CCC[C@@H]1CCC[C@H](C2=NC3(CCN(S(=O)(=O)CCc4ccc(NC(C)=O)cc4C)CC3)C(=O)N2)C1 [Compound 923, N-(3-methyl-4-{2-[4-oxo-2-((1S,3R)-3-propyl-cyclohexyl)-1,3,8-triaza-spiro[4.5]dec-1-ene-8-sulfonyl]-ethyl}-phenyl)-acetamide]
76	CC(=O)Nc1ccc(CCS(=O)(=O)N2CCC3(CC2)N=C([C@H]2CCC[C@@H](C)C2)NC3=O)c(C)c1 [Compound 924, N-(3-methyl-4-{2-[2-((1S,3R)-3-methyl-cyclohexyl)-4-oxo-1,3,8-triaza-spiro[4.5]dec-1-ene-8-sulfonyl]-ethyl}-phenyl)-acetamide]
69	CC(=O)Nc1ccc(CCS(=O)(=O)N2CCC3(CC2)N=C(C2CCC(C)(C)CC2)NC3=O)c(C)c1 [Compound 925, N-(4-{2-[2-(4,4-dimethyl-cyclohexyl)-4-oxo-1,3,8-triaza-spiro[4.5]dec-1-ene-8-sulfonyl]-ethyl}-3-methyl-phenyl)-acetamide]
102	CC(=O)Nc1ccc(CCS(=O)(=O)N2CCC3(CC2)N=C(C2CC(C)(C)CC(C)(C)C2)NC3=O)c(C)c1 [Compound 926, N-(3-methyl-4-{2-[4-oxo-2-(3,3,5,5-tetramethyl-cyclohexyl)-1,3,8-triaza-spiro[4.5]dec-1-ene-8-sulfonyl]-ethyl}-phenyl)-acetamide]
80	COCCC1CCC(C2=NC3(CCN(S(=O)(=O)CCc4ccc(NC(C)=O)cc4C)CC3)C(=O)N2)CC1 (stereo not drawn) [Compound 927, N-[4-(2-{2-[4-(2-Methoxy-ethyl)-cyclohexyl]-4-oxo-1,3,8-triaza-spiro[4.5]dec-1-ene-8-sulfonyl}-ethyl)-3-methyl-phenyl]-acetamide]
51	Cc1cc(CNC(=O)OC(C)(C)C)ccc1CCS(=O)(=O)N1CCC2(CC1)N=C(C1CCC(CCC(F)(F)F)CC1)NC2=O (stereo not drawn) [Compound 928, [3-Methyl-4-(2-{4-oxo-2-[4-(3,3,3-trifluoro-propyl)-cyclohexyl]-1,3,8-triaza-spiro[4.5]dec-1-ene-8-sulfonyl}-ethyl)-benzyl]-carbamic acid tert-butyl ester]
76	Cc1cc(N(CCO)C(=O)C(C)C)ccc1CCS(=O)(=O)N1CCC2(CC1)N=C(c1cccc(OC(F)(F)F)c1)NC2=O [Compound 929, N-(2-Hydroxy-ethyl)-N-(3-methyl-4-{2-[4-oxo-2-(3-trifluoromethoxy-phenyl)-1,3,8-triaza-spiro[4.5]dec-1-ene-8-sulfonyl]-ethyl}-phenyl)-isobutylamide]
92	Cc1cc(N(CCO)C(=O)CO)ccc1CCS(=O)(=O)N1CCC2(CC1)N=C(c1cccc(OC(F)(F)F)c1)NC2=O [Compound 930, 2-Hydroxy-N-(2-hydroxy-ethyl)-N-(3-methyl-4-{2-[4-oxo-2-(3-trifluoromethoxy-phenyl)-1,3,8-triaza-spiro[4.5]dec-1-ene-8-sulfonyl]-ethyl}-phenyl)-acetamide]
72	Cc1cc(N(C)C(=O)C(F)(F)F)cc(C)c1CCS(=O)(=O)N1CCC2(CC1)N=C([C@H]1CC[C@H](C)CC1)NC2=O [Compound 931, N-(3,5-Dimethyl-4-{2-[2-(4-methyl-cyclohexyl)-4-oxo-1,3,8-triaza-spiro[4.5]dec-1-ene-8-sulfonyl]-ethyl}-phenyl)-2,2,2-trifluoro-N-methyl-acetamide]
66	Cc1cc(N(C)C(=O)C(F)(F)F)cc(C)c1CCS(=O)(=O)N1CCC2(CC1)N=C(C1CCCC(C)C1)NC2=O (stereo not drawn) [Compound 932, N-(3,5-Dimethyl-4-{2-[2-(3-methyl-cyclohexyl)-4-oxo-1,3,8-triaza-spiro[4.5]dec-1-ene-8-sulfonyl]-ethyl}-phenyl)-2,2,2-trifluoro-N-methyl-acetamide]
60	Cc1cc(N(C)C(=O)C(F)(F)F)cc(C)c1CCS(=O)(=O)N1CCC2(CC1)N=C(C1CC(C)(C)CC(C)(C)C1)NC2=O [Compound 933, N-(3,5-dimethyl-4-{2-[4-oxo-2-(3,3,5,5-tetramethyl-cyclohexyl)-1,3,8-triaza-spiro[4.5]dec-1-ene-8-sulfonyl]-ethyl}-phenyl)-2,2,2-trifluoro-N-methyl-acetamide]
87	Cc1cc(N(C)C(N)=O)cc(C)c1CCS(=O)(=O)N1CCC2(CC1)N=C(C1CCCCCC1)NC2=O [Compound 934, 1-{4-[2-(2-Cycloheptyl-4-oxo-1,3,8-triaza-spiro[4.5]dec-1-ene-8-sulfonyl)-ethyl]-3,5-dimethyl-phenyl}-1-methyl-urea]
112	Cc1cc(N(C)C(N)=O)cc(C)c1CCS(=O)(=O)N1CCC2(CC1)N=C(c1cccc(OC(F)(F)F)c1)NC2=O [Compound 935, 1-(3,5-dimethyl-4-{2-[4-oxo-2-(3-trifluoromethoxy-phenyl)-1,3,8-triaza-spiro[4.5]dec-1-ene-8-sulfonyl]-ethyl}-phenyl)-1-methyl-urea]
98	Cc1cc(N(C)C(N)=O)cc(C)c1CCS(=O)(=O)N1CCC2(CC1)N=C(C1CCC(CC(F)(F)F)CC1)NC2=O (stereo not drawn) [Compound 936, 1-[3,5-Dimethyl-4-(2-{4-oxo-2-[4-(2,2,2-trifluoro-ethyl)-cyclohexyl]-1,3,8-triaza-spiro[4.5]dec-1-ene-8-sulfonyl}-ethyl)-phenyl]-1-methyl-urea]
120	Cc1cc(N(C)C(N)=O)c(Cl)c(C)c1CCS(=O)(=O)N1CCC2(CC1)N=C(C1CCC(CC(F)(F)F)CC1)NC2=O (stereo not drawn) [Compound 937, 1-[2-chloro-3,5-dimethyl-4-(2-{4-oxo-2-[4-(2,2,2-trifluoro-ethyl)-cyclohexyl]-1,3,8-triaza-spiro[4.5]dec-1-ene-8-sulfonyl}-ethyl)-phenyl]-1-methyl-urea]
97	Cc1cc(N(C)C(N)=O)cc(C)c1CCS(=O)(=O)N1CCC2(CC1)N=C(C1CCC(C)(C)CC1)NC2=O [Compound 938, 1-(4-{2-[2-(4,4-dimethyl-cyclohexyl)-4-oxo-1,3,8-triaza-spiro[4.5]dec-1-ene-8-sulfonyl]-ethyl}-3,5-dimethyl-phenyl)-1-methyl-urea]
111	Cc1cc(N(C)C(N)=O)cc(C)c1CCS(=O)(=O)N1CCC2(CC1)N=C(C1CCC(=CCC(F)(F)F)CC1)NC2=O (stereo not drawn) [Compound 939, 1-[3,5-Dimethyl-4-(2-{4-oxo-2-[4-(3,3,3-trifluoro-propylidene)-cyclohexyl]-1,3,8-triaza-spiro[4.5]dec-1-ene-8-sulfonyl}-ethyl)-phenyl]-1-methyl-urea]
86	Cc1cc(N(C)C(N)=O)cc(C)c1CCS(=O)(=O)N1CCC2(CC1)N=C(C1CCC(CC=C(F)F)CC1)NC2=O (stereo not drawn) [Compound 940, 1-[4-(2-{2-[4-(3,3-difluoro-allyl)-cyclohexyl]-4-oxo-1,3,8-triaza-spiro[4.5]dec-1-ene-8-sulfonyl}-ethyl)-3,5-dimethyl-phenyl]-1-methyl-urea]
21	Cc1cc(N(C)C(N)=O)cc(C)c1CCS(=O)(=O)N1CC2(C1)N=C(c1cccc(OC(F)(F)F)c1)NC2=O [Compound 941, 1-(3,5-dimethyl-4-{2-[8-oxo-6-(3-trifluoromethoxy-phenyl)-2,5,7-triaza-spiro[3.4]oct-5-ene-2-sulfonyl]-ethyl}-phenyl)-1-methyl-urea]
31	CC(=O)N(C)c1ccc(/C(F)=C\S(=O)(=O)N2CCC3(CC2)N=C(C2CCC(C)CC2)NC3=O)c(C)c1 (stereo not drawn) [Compound 942, N-(4-{(E)-1-Fluoro-2-[2-(4-methyl-cyclohexyl)-4-oxo-1,3,8-triaza-spiro[4.5]dec-1-ene-8-sulfonyl]-vinyl}-3-methyl-phenyl)-N-methyl-acetamide]
74	Cc1cc(N2C(=O)CNC2=O)ccc1CCS(=O)(=O)N1CCC2(CC1)N=C(C1CCC(CCC(F)(F)F)CC1)NC2=O (stereo not drawn) [Compound 943, 3-[3-Methyl-4-(2-{4-oxo-2-[4-(3,3,3-trifluoro-propyl)-cyclohexyl]-1,3,8-triaza-spiro[4.5]dec-1-ene-8-sulfonyl}-ethyl)-phenyl]-imidazolidine-2,4-dione]
71	Cc1cc(N2C(=O)CNC2=O)ccc1CCS(=O)(=O)N1CCC2(CC1)N=C(C1CCC(CCCC(F)(F)F)CC1)NC2=O (stereo not drawn) [Compound 944, 3-[3-methyl-4-(2-{4-oxo-2-[4-(4,4,4-trifluoro-butyl)-cyclohexyl]-1,3,8-triaza-spiro[4.5]dec-1-ene-8-sulfonyl}-ethyl)-phenyl]-imidazolidine-2,4-dione]
77	Cc1cc(N2C(=O)CNC2=O)ccc1CCS(=O)(=O)N1CCC2(CC1)N=C(C1CCC(/C=C/C(F)F)CC1)NC2=O (stereo not drawn) [Compound 945, 3-[4-(2-{2-[4-((E)-3,3-difluoro-propenyl)-cyclohexyl]-4-oxo-1,3,8-triaza-spiro[4.5]dec-1-ene-8-sulfonyl}-ethyl)-3-methyl-phenyl]-imidazolidine-2,4-dione]
102	Cc1cc(N2C(=O)CNC2=O)ccc1CCS(=O)(=O)N1CCC2(CC1)N=C([C@H]1CC[C@H](CC=C(F)F)CC1)NC2=O [Compound 946, 3-[4-(2-{2-[4-(3,3-difluoro-allyl)-cyclohexyl]-4-oxo-1,3,8-triaza-spiro[4.5]dec-1-ene-8-sulfonyl}-ethyl)-3-methyl-phenyl]-imidazolidine-2,4-dione]
